According to patent US20230190608A1, “COMPOSITIONS AND METHODS FOR IMPROVING THE APPEARANCE OF SKIN” (L'Oreal, priority 2021, published 2023):

How the values were obtained:
[1] = system: filaggrin (FLG) expression; test: Ex vivo skin model, filaggrin immunohistochemical staining; format: cell-based, human; conditions: 0.1% acetyl trifluoromethylphenyl valylglycine added to 0.003% retinol, 7-day culture
Experimental: The effect of acetyl trifluoromethylphenyl valylglycine and/or retinoids on skin turnover/desquamation, filaggrin expression, desmocollin-1 expression was evaluated in an ex vivo skin model. In this study, the effects of acetyl trifluoromethylphenyl valylglycine (0.1%), retinol (0.003%) and acetyl trifluoromethylphenyl valylglycine+retinol on the skin were evaluated by H&E (assessing for overall tissue health), filaggrin (assessing the level of barrier renewal) and desmocollin-1 (assessing the tight junction between the keratinocytes).
Fresh post-abdominoplasty normal human skin samples (3 lots, age 36-59 years old, Hispanic/Caucasian/African American, female) were acquired from BioIVT Inc. (Westbury, N.Y.). Tissue was defatted and cleaned of blood residue. Explant samples were then created using a 12 mm biopsy punch. Samples were cleaned with sterile PBS. Skin biopsies not receiving treatment served as controls. Skin explants were maintained at air-liquid interface at 37° C. and 5% CO2 in four different treatment groups (n=3 per media type): • 1. […]
Skin explants were processed for haematoxylin and eosin, and immunohistochemical staining (Reveal Biosciences, CA). […] The primary staining was followed by rabbit anti-mouse IgG or anti-rabbit Poly-HRP-IgG respectively and were detected using the Bond Polymer Refine Detection kit (DS9800, Leica Biosystems, UK). […]

[2] = format: in vitro ADME, human
Experimental: Human skin samples were obtained from abdominal surgery. Excess subcutaneous fat was removed, if necessary. Skin samples were excised and cut into pieces of around 2 cm×2 cm. Thickness was measured and transepidermal water loss (TEWL) was measured. The human skin was included in the study if the TEWL was between 0.5 and 13 g/m^2/h for abdominal skin. The 2 cm^2 skin samples were kept in a static cell in a diffusion chamber in a Franz cell horizontal cell clamp system (Crown Glass Company, Inc.) and maintained at a constant temperature of 32° C.±1° C. The static cells consist of a donor chamber and a receptor chamber with a 7 mL receptor fluid compartment separated by the skin.
The cells were placed on a magnetic stirrer which was integrated with a fixed temperature water bath maintained in order to have 32° C.±1° C. at the skin surface. The receptor compartment of each cell was filled with the receptor fluid (PBS) and was continuously stirred. The skin samples were placed on the receptor compartment. The donor compartment was then placed onto the skin samples. […]
A composition containing 2 wt % acetyl trifluoromethylphenyl valylglycine was applied to the skin sample at a rate of 10 mg/cell using a positive displacement pipette and the exact amount applied was determined by weight then recorded (Sartorius Entris II Essential Analytical balance, Thermo-Fisher). […]
The skin was then stripped with consistent weight and time of application. […] The strips samples were stored with solvent (methanol) at −20° C. for a maximum of 5 days before being analyzed. […] The RS vials were stored with solvent (methanol) at −20° C. for a maximum of 7 days before being analyzed. Dermis and epidermis samples were stored with solvent at −20° C. for a maximum of 7 days before being analyzed. The receptor fluid was taken 16 hours after the application and the samples were analyzed.
Receptor fluid samples were stored at −20° C. for a maximum of 6 days before being analyzed. […] Samples were stored at −20° C. for a maximum of 5 days before being analyzed.
The final extract was analyzed by LC-MS/MS. […]

[3] = system: desmocollin-1 (DSC1) expression; test: Ex vivo skin model, desmocollin-1 immunohistochemical staining; format: cell-based, human; conditions: 0.003% retinol in media, 7-day culture
Experimental: The effect of acetyl trifluoromethylphenyl valylglycine and/or retinoids on skin turnover/desquamation, filaggrin expression, desmocollin-1 expression was evaluated in an ex vivo skin model. In this study, the effects of acetyl trifluoromethylphenyl valylglycine (0.1%), retinol (0.003%) and acetyl trifluoromethylphenyl valylglycine+retinol on the skin were evaluated by H&E (assessing for overall tissue health), filaggrin (assessing the level of barrier renewal) and desmocollin-1 (assessing the tight junction between the keratinocytes). Fresh post-abdominoplasty normal human skin samples (3 lots, age 36-59 years old, Hispanic/Caucasian/African American, female) were acquired from BioIVT Inc. (Westbury, N.Y.). Tissue was defatted and cleaned of blood residue. Explant samples were then created using a 12 mm biopsy punch. Samples were cleaned with sterile PBS. Skin biopsies not receiving treatment served as controls. Skin explants were maintained at air-liquid interface at 37° C. and 5% CO2 in four different treatment groups (n=3 per media type): • 1. […] The primary staining was followed by rabbit anti-mouse IgG or anti-rabbit Poly-HRP-IgG respectively and were detected using the Bond Polymer Refine Detection kit (DS9800, Leica Biosystems, UK). […]

[4] = system: normal human skin samples (explants); test: Ex vivo skin model, H&E staining (overall tissue health); format: cell-based; conditions: 0.003% retinol in media, 7-day culture

| SMILES | expression of filaggrin [1] | amount penetrated through the stratum corneum [2] | amount penetrating past the stratum corneum barrier into epidermis, dermis and receptor fluid [2] | dermal dose [2] | expression of desmocollin-1 [3] | change in H&E [4] |
| --- | --- | --- | --- | --- | --- | --- |
| CC(=O)N(c1cccc(C(F)(F)F)c1)C(C(=O)NCC(=O)O)C(C)C (stereo not drawn) [acetyl trifluoromethylphenyl valylglycine] | increases the expression | about 0.08 wt % | about 0.8% | at least 0.08 wt % | – | – |
| CC1=C(/C=C/C(C)=C/C=C/C(C)=C/CO)C(C)(C)CCC1 [retinol] | – | – | – | – | downward expression | some mild level of skin irritation |
